Results published in patent US11020451B2, “Methods for treating fibrotic cancers” (Promedior, Inc., priority 2013, dated 2021).

Tests used:
Assay type in all cases: in vivo, human
[1] = tested on: myelofibrosis (MF) patients; test: Bone marrow fibrosis grade (European Consensus) and bone marrow response, same study; details: for number of patients with decrease in bone marrow fibrosis by ≥1 grade: all treatment arms, at 12 or 24 weeks or both; for bone marrow fibrosis grade change: after 12 weeks
Experimental: (§1) Recombinant human SAP, in this case the recombinant human SAP known as PRM-151, was administered to myelofibrosis (MF) patients, alone and in combination with ruxolitinib (RUX), to evaluate safety and efficacy in treating bone marrow fibrosis (BMF). Patients with Intermediate-1, Intermediate-2, or high risk MF with grade ≥2 BMF, either not receiving therapy or on a stable dose of RUX, were eligible for this study.
(§2) Twenty-seven patients were assigned to one of four cohorts based on administration of PRM-151 as a monotherapy or as part of a combination therapy. Cohort 1: i) patients who received no treatment for MF in at least two weeks, ii) were administered an initial loading dose of SAP at 10 mg/kg by intravenous infusion (˜1 hour infusion) on days 1, 3, and 5, and iii) thereafter were administered a dose of SAP every four weeks at 10 mg/kg by intravenous infusion (˜1 hour infusion). Cohort 2: i) patients who received no treatment for MF in at least two weeks, ii) were administered an initial loading dose of SAP at 10 mg/kg by intravenous infusion (˜1 hour infusion) on days 1, 3, and 5, and iii) thereafter were administered a dose of SAP every week at 10 mg/kg by intravenous infusion (˜1 hour infusion). Cohort 3: i) patients on a stable dose (e.g., on ruxolitinib for at least 3 months without any dose modifications) of ruxolitinib for at least 12 weeks with no improvement in spleen during the last four weeks, ii) were administered an initial loading dose of SAP at 10 mg/kg by intravenous infusion (˜1 hour infusion) on days 1, 3, and 5 iii) thereafter were administered a dose of SAP every week at 10 mg/kg by intravenous infusion (˜1 hour infusion), and iv) were administered RUX orally at the dose at which they entered the study. Cohort 4: i) patients on a stable dose (e.g., on ruxolitinib for at least 3 months without any dose modifications) of ruxolitinib for at least 12 weeks with no improvement in spleen during the last four weeks, ii) were administered an initial loading dose of SAP at 10 mg/kg by intravenous infusion (˜1 hour infusion) on days 1, 3, and 5 iii) thereafter were administered a dose of SAP every four weeks at 10 mg/kg by intravenous infusion (˜1 hour infusion), and iv) were administered RUX orally at the dose at which they entered the study.
(§3) Patients in each cohort were monitored for improvements in BMF and other MF-related complications including, for example, abnormal blood cell parameters, splenomegaly, and symptoms as assessed by the MPN-SAF. In particular, patients were monitored for overall response rate according to the International Working Group consensus criteria for treatment response in myelofibrosis with myeloid metaplasia (Tefferi A, Cervantes F, Mesa R, et al. Revised response criteria for myelofibrosis: International Working Group-Myeloproliferative Neoplasms Research and Treatment (IWG-MRT) and European LeukemiaNet (ELN) consensus report. Blood. 2013; 122:1395-1398). Patients were also monitored for incidence of adverse events, changes in bone marrow fibrosis according to the European Consensus of Grading Bone Marrow Fibrosis (Thiele J, Kvasnicka H M, Facchetti F, et al. European consensus on grading bone marrow fibrosis and assessment of cellularity. Haematologica 2005; 90:1128-1132.), changes in the modified Myeloproliferative Neoplasma Symptom Assessment Form (MPN-SAF) Score (Emanuel et al. 2012, Journal of Clinical Oncology 30(33): 4098-4103), as well as pharmacokinetic parameters including, for example, maximum drug concentration (Cmax), time to maximum concentration (Tmax), area under the curve (AUC), clearance, and volume of distribution.
Bone marrow biopsies were obtained at baseline and after three months of therapy and were reviewed. […] As detailed below, these improvements in BMF have borne out upon further analysis of the data across further treatment periods.
Clinical response assessment, including assessment of spleen size, MPN-SAF, and CBC, was carried out every 4 weeks. […]

[2] = tested on: myelofibrosis (MF) patients; test: MPN-SAF Total Symptom Score and IWG-MRT symptom response, same study; details: for number of patients with measurable symptom response (TSS reduction): alone; for MPN-SAF TSS response: patient 101-005 (Cohort 1), 24-30 weeks of monotherapy
Experimental: as §1, §2, §3
(§4) Clinical response assessment, including assessment of spleen size, MPN-SAF, and CBC, was carried out every 4 weeks. BM biopsies were carried out at baseline, 12 weeks, and 24 weeks. The IWG-MRT symptom and bone marrow responses observed at 24 weeks of this study are summarized below in Table 3. […]

[3] = tested on: myelofibrosis (MF) patients; test: Spleen size / spleen response, same study; details: for number of patients with measurable decrease in spleen size: alone; for spleen size response: patient 101-005 (Cohort 1), 24-30 weeks of monotherapy
Experimental: as §1, §2, §3, §4

[4] = tested on: myelofibrosis (MF) patients; test: Adverse events, tolerability and myelosuppression, Stage 1 study of PRM-151 alone and with ruxolitinib; details: for safety and tolerability: MF patients, alone and in combination with RUX; for treatment-related myelosuppression: after 24 weeks of therapy, all four cohorts
Experimental: as §1, §2, §3
The numbers indicated in each column below the grade indicate the number of patients in which the adverse event was reported.

[5] = tested on: myelofibrosis (MF) patients; test: Hemoglobin, platelets (CBC) and red blood cell transfusions, same study; details: for hemoglobin response / platelet response: patient 101-005 (Cohort 1), 24-30 weeks of monotherapy
Experimental: as §1, §2, §3, §4

[6] = Cohort 1: 10 mg/kg IV Q4W alone, 24 weeks
[7] = Cohort 2: 10 mg/kg IV QW alone, 24 weeks
[8] = a number of patients in all 4 treatment arms

PRM-151: recombinant human SAP (serum amyloid P, pentraxin-2), α2,3-sialic acid-containing, expressed in CHO cells
bone marrow responses, number ([1]; Cohort 1: Q4W alone, 24 weeks): 2 bone marrow responses
bone marrow responses, number ([1]; Cohort 1: Q4W alone, 24 weeks, listed as recombinant human SAP): 2
bone marrow responses, number ([1]; Cohort 2: QW alone, 24 weeks): 1 bone marrow response
number of patients with decrease in bone marrow fibrosis by ≥1 grade [1]: 5
number of patients with decrease in bone marrow fibrosis by ≥1 grade ([1]; listed as recombinant human SAP): five
bone marrow responses, number ([1]; in 10 additional patients evaluated at 36 weeks, alone or in combination): 3
number of subjects with improvement in BMF ([1]; of 27 subjects examined, biopsies at baseline and after three months, all cohorts): 5
bone marrow fibrosis grade change ([1]; one Cohort 1 patient (every four weeks, alone)): Grade 2 to Grade 0
bone marrow fibrosis grade change ([1]; one Cohort 2 patient (weekly, alone)): Grade 3 to Grade 2
bone marrow fibrosis grade change (reticulin staining) ([1]; patient 101-005 (Cohort 1), 12 weeks / three months): Grade 2 to Grade 0
bone marrow fibrosis grade change (reticulin staining) ([1]; patient 108-003 (Cohort 4), six months): Grade 2 to Grade 1
bone marrow fibrosis grade change (reticulin staining) ([1]; patient 108-003 (Cohort 4), three months): Grade 3 to Grade 2
durability of response ([1]; patients responsive at the 12- or 24-week mark, following 36 weeks of treatment): continued to respond
symptom response ≥8 weeks, number ([2]; Cohort 1: Q4W alone, 24 weeks): 1 symptom response ≥8 weeks
number of patients with measurable symptom response (TSS reduction) ([2]; Cohort 1: every 4 weeks): 4
confirmed symptom responses (≥12 weeks), number ([2]; Cohort 2: QW alone, 24 weeks): 2 confirmed symptom responses (≥12 weeks)
symptom response ≥8 weeks, number ([2]; Cohort 2: QW alone, 24 weeks): 1 symptom response ≥8 weeks
number of patients with measurable symptom response (TSS reduction) ([2]; Cohort 2: weekly): 1
additional subjects with 50% decrease in symptom score lasting ≥8 weeks ([2]; less than 50% on Cycle 6 Day 29): Two
number of patients with reduction in MPN-SAF TSS compared to baseline ([2]; of 18 evaluated patients followed to C6D29 or beyond, all four arms): 10
number of patients with ≥50% reduction in Total Symptom Score ([2]; on Cycle 6 Day 29, all arms): 5
MPN-SAF TSS response [2]: decrease
MPN-SAF TSS response ([2]; listed as rhSAP): reduction
number of patients with measurable decrease in spleen size ([3]; Cohort 1: every 4 weeks): 3
spleen response ≥8 weeks, number ([3]; Cohort 2: QW alone, 24 weeks): 1 spleen response ≥8 weeks
number of patients with measurable decrease in spleen size ([3]; Cohort 2: weekly): 2
number of patients with ≥20% reduction in spleen volume ([3]; all treatment arms, 24 weeks): five
number of patients with reduction in spleen size compared to baseline ([3]; of 13 evaluated patients with palpable spleen followed to C6D29 or beyond, all four arms): 10
reduction in spleen volume ([3]; one patient, Cohort 2 (weekly, alone), lasting 8 weeks): 50%
spleen size response [3]: decrease
spleen size response ([3]; listed as rhSAP): reduction
Abdominal pain Gr 3, number of patients [4, 6]: 1
Fatigue Gr 2, number of patients [4, 6]: 2
Neuropathy Peripheral Gr 2, number of patients [4, 6]: 1
Abdominal pain Gr 3, number of patients [4, 7]: 1
Alanine aminotransferase increased Gr 2, number of patients [4, 7]: 1
safety and tolerability ([4]; listed as SAP): good tolerability
safety and tolerability ([4]; listed as rhSAP): safe and well tolerated
treatment-related myelosuppression [4]: no apparent treatment-related myelosuppression
treatment-related myelosuppression ([4]; listed as rhSAP): no evidence of clinically significant myelosuppression
hemoglobin levels [5, 8]: Improvement
platelet levels [5, 8]: Improvement
red blood cell transfusions [5, 8]: decrease
hemoglobin response [5]: increase
platelet response [5]: increase
hemoglobin response ([5]; listed as rhSAP): improvement
platelet response ([5]; listed as rhSAP): improvement
